Where two headings read alike, the source gives them in different places. Each block holds one molecule with its values, some of them ahead of it.
Experiments:
[1] = tested on: SkBr3 (Her2 overexpressing breast cancer cells); experiment: Anti-proliferation activity against SkBr3 cells (MTS/PMS); type: cell-based; details: read-out: IC50, SKBr3
Method: (§1) Upon completion of synthesis of library of compounds in Examples 23 and 24, the compounds were evaluated for anti-proliferative activity against SkBr3 (Her2 overexpressing breast cancer cells), MCF-7 (estrogen receptor positive breast cancer cells), HCT-116 (colon cancer cells characterized by wild-type p53), PL45 (pancreatic cancer cells), LNCaP (androgen sensitive prostate cancer cells) and PC-3 (androgen independent prostate cancer cells) cell lines.
(§2) Cells were maintained in a 1:1 mixture of Advanced DMEM/F12 (Gibco) supplemented with non-essential amino acids, L-glutamine (2 mM), streptomycin (500 ng/mL), penicillin (100 units/mL), and 10% FBS. Cells were grown to confluence in a humidified atmosphere (37° C., 5% CO2), seeded (2000/well, 100 μl) in 96-well plates, and allowed to attach overnight. Compound or GDA at varying concentrations in DMSO (1% DMSO final concentration) was added, and cells were returned to the incubator for 72 hours. At 72 hours, the number of viable cells was determined using an MTS/PMS cell proliferation kit (Promega) per the manufacturer's instructions. Cells incubated in 1% DMSO were used at 100% proliferation, and values were adjusted accordingly. IC50 values were calculated from separate experiments performed in triplicate using GraphPad Prism.
as §2, with “μg/mL),” for “ng/mL),”, “μL)” for “μl)”

[2] = tested on: MCF-7 (estrogen receptor positive breast cancer cells); experiment: Anti-proliferation activity against MCF-7 cells (MTS/PMS); type: cell-based
Method: as §1, §2
as §2, with “μg/mL),” for “ng/mL),”, “μL)” for “μl)”

[3] = Homo sapiens, SK-BR-3, Table 18, modified furanose or pyranose noviose replacements
[4] = Homo sapiens, MCF7, Table 18, modified furanose or pyranose noviose replacements, read-out: IC50, MCF7
[5] = Homo sapiens, SK-BR-3, Table 19, 7-oxyalkylamino and 7-oxypiperidinyl analogues
[6] = Homo sapiens, MCF7, Table 19, 7-oxyalkylamino and 7-oxypiperidinyl analogues, read-out: IC50, MCF-7
[7] = Table 19, 7-oxyalkylamino and 7-oxypiperidinyl analogues
[8] = Table 19, 7-oxyalkylamino and 7-oxypiperidinyl analogues, read-out: IC50, MCF-7
[9] = Homo sapiens, SK-BR-3, Table 21, substituted indole-2-carboxamide analogues with noviose replacements
[10] = Homo sapiens, MCF7, Table 21, substituted indole-2-carboxamide analogues with noviose replacements, read-out: IC50, MCF-7

SMILES: CC(=O)Oc1ccc(C(=O)Nc2cc3ccc(O[C@H]4C[C@@H](O)CO4)c(C)c3oc2=O)cc1CC=C(C)C [20a, KU-432, 4-(7-((2S,4R)-4-Hydroxytetrahydrofuran-2-yloxy)-8-methyl-2-oxo-2H-chromen-3-ylcarbamoyl)-2-(3-methylbut-2-enyl)phenyl acetate]
IC50 [1, 3]: 22.2 ± 0.94 µM
IC50 [2, 4]: > 100 µM

SMILES: CC(=O)Oc1ccc(C(=O)Nc2cc3ccc(OC4CCNCC4)c(C)c3oc2=O)cc1CC=C(C)C [30b, KU-415, 4-(8-methyl-2-oxo-7-(piperidin-4-yloxy)-2H-chromen-3-ylcarbamoyl)-2-(3-methylbut-2-enyl)phenyl acetate]
IC50 [1, 7]: 1.53 ± 0.14 µM
IC50 [2, 8]: 0.77 ± 0.27 µM

SMILES: CC(=O)Oc1ccc(C(=O)Nc2cc3ccc(O[C@@H]4C[C@@H](O)CO4)c(C)c3oc2=O)cc1CC=C(C)C [20b, KU-433, 4-(7-((2R,4R)-4-Hydroxytetrahydrofuran-2-yloxy)-8-methyl-2-oxo-2H-chromen-3-ylcarbamoyl)-2-(3-methylbut-2-enyl)phenyl acetate]
IC50 [1, 3]: 21.5 ± 2.28 µM
IC50 [2, 4]: 22.5 ± 0.4 µM

SMILES: CC(C)=CCc1cc(C(=O)Nc2cc3ccc(O[C@H]4OCC[C@@H](O)[C@H]4O)c(C)c3oc2=O)ccc1O [16a, KU-425, N-(7-((2R,3R,4R)-3,4-dihydroxytetrahydro-2H-pyran-2-yloxy)-8-methyl-2-oxo-2H-chromen-3-yl)-4-hydroxy-3-(3-methylbut-2-enyl)benzamide]
IC50 [1, 3]: 10.68 ± 0.05 µM
IC50 [2, 4]: 10.04 ± 0.03 µM

SMILES: CC(C)=CCc1cc(C(=O)Nc2cc3ccc(O[C@@H]4OCCC[C@H]4O)c(C)c3oc2=O)ccc1O [17b, KU-428, 4-Hydroxy-N-(7-((2S,3R)-3-hydroxytetrahydro-2H-pyran-2-yloxy)-8-methyl-2-oxo-2H-chromen-3-yl)-3-(3-methylbut-2-enyl)benzamide]
IC50 [1, 3]: 30 ± 2.07 µM
IC50 [2, 4]: 10.2 ± 0.21 µM

SMILES: CC(=O)Oc1ccc(C(=O)Nc2cc3ccc(OC4CCCNC4)c(C)c3oc2=O)cc1CC=C(C)C (stereo not drawn) [30d, KU-419, 4-(8-methyl-2-oxo-7-(piperidin-3-yloxy)-2H-chromen-3-ylcarbamoyl)-2-(3-methylbut-2-enyl)phenyl acetate]
IC50 [1, 7]: 1.54 ± 0.11 µM
IC50 [2, 8]: 1.23 µM

SMILES: CC(C)=CCc1cc(C(=O)Nc2cc3ccc(O[C@@H]4OCC[C@@H](O)[C@H]4O)c(C)c3oc2=O)ccc1O [16b, KU-426, N-(7-((2S,3R,4R)-3,4-dihydroxytetrahydro-2H-pyran-2-yloxy)-8-methyl-2-oxo-2H-chromen-3-yl)-4-hydroxy-3-(3-methylbut-2-enyl)benzamide]
IC50 [1, 3]: 6.96 ± 0.06 µM
IC50 [2, 4]: 13.3 ± 0.21 µM

SMILES: CC(=O)Oc1ccc(C(=O)Nc2cc3ccc(OC4CCN(C)CC4)c(C)c3oc2=O)cc1CC=C(C)C [29a, KU-397, 4-(8-Methyl-7-(1-methylpiperidin-4-yloxy)-2-oxo-2H-chromen-3-ylcarbamoyl)-2-(3-methylbut-2-enyl)phenyl acetate]
IC50 [1, 7]: 1.18 ± 0.2 µM

SMILES: CC(=O)Oc1ccc(C(=O)Nc2cc3ccc(OC4CCCN(C)C4)c(C)c3oc2=O)cc1CC=C(C)C (stereo not drawn) [29c, KU-417, 4-(8-Methyl-7-(1-methylpiperidin-3-yloxy)-2-oxo-2H-chromen-3-ylcarbamoyl)-2-(3-methylbut-2-enyl)phenyl acetate]
IC50 [1, 7]: 1.57 ± 0.05 µM
IC50 [2, 8]: 1.42 ± 0.02 µM

SMILES: CC(=O)Oc1ccc(C(=O)Nc2cc3ccc(OCCN(C)C)c(C)c3oc2=O)cc1CC=C(C)C [29e, KU-421, 4-(7-(2-(Dimethylamino)ethoxy)-8-methyl-2-oxo-2H-chromen-3-ylcarbamoyl)-2-(3-methylbut-2-enyl)phenyl acetate]
IC50 [1, 7]: 4.76 ± 0.52 µM
IC50 [2, 8]: 1.32 µM

SMILES: CNCCOc1ccc2cc(NC(=O)c3ccc(OC(C)=O)c(CC=C(C)C)c3)c(=O)oc2c1C [30g, KU-423, 4-(8-methyl-7-(2-(methylamino)ethoxy)-2-oxo-2H-chromen-3-ylcarbamoyl)-2-(3-methylbut-2-enyl)phenyl acetate]
IC50 [1, 7]: 2.08 ± 0.13 µM
IC50 [2, 8]: 0.91 ± 0.21 µM

SMILES: CC(=O)Oc1ccc(C(=O)Nc2cc3ccc(O[C@@H]4OC[C@H](O)[C@@H]4O)c(C)c3oc2=O)cc1CC=C(C)C [19, KU-431, 4-(7-((2S,3S,4S)-3,4-Dihydroxytetrahydrofuran-2-yloxy)-8-methyl-2-oxo-2H-chromen-3-ylcarbamoyl)-2-(3-methylbut-2-enyl)phenyl acetate]
IC50 [1, 3]: 14.4 ± 0.52 µM
IC50 [2, 4]: 14.3 ± 0.4 µM

Other lines, results leading:

IC50 [1, 5]: 0.095 µM
IC50 [2, 6]: 0.15 µM
SMILES: CC(C)=CCc1cc(C(=O)Nc2cc3ccc(OC4CCN(C)CC4)c(C)c3oc2=O)ccc1OC1CCN(C)CC1 [KU-458]

IC50 [1, 5]: 1.35 ± 0.38 µM
IC50 [2, 6]: 0.44 ± 0.02 µM
SMILES: CC(C)=CCc1cc(C(=O)Nc2cc3ccc(OCCCN(C)C)c(C)c3oc2=O)ccc1O [31f, KU-407, N-(7-(3-(Dimethylamino)propoxy)-8-methyl-2-oxo-2H-chromen-3-yl)-4-hydroxy-3-(3-methylbut-2-enyl)benzamide]

IC50 [1, 9]: 0.51 ± 0.11 µM
IC50 [2, 10]: 4.95 ± 0.45 µM
SMILES: COc1cc2cc(NC(=O)c3cc4cc(Cl)ccc4[nH]3)c(=O)oc2c(C)c1OC1CCN(C)CC1 [KU-386]

IC50 [1, 5]: 1.09 ± 0.1 µM
SMILES: CC(C)=CCc1cc(C(=O)Nc2cc3ccc(OC4CCN(C)CC4)c(C)c3oc2=O)ccc1O [31a, KU-398, 4-Hydroxy-N-(8-methyl-7-(1-methylpiperidin-4-yloxy)-2-oxo-2H-chromen-3-yl)-3-(3-methylbut-2-enyl)benzamide]

IC50 [1, 5]: 10.1 ± 0.17 µM
IC50 [2, 6]: 4.69 ± 0.16 µM
SMILES: CC(C)=CCc1cc(C(=O)Nc2cc3ccc(OC4CCCN(C)C4)c(C)c3oc2=O)ccc1O (stereo not drawn) [31c, KU-418, 4-Hydroxy-N-(8-methyl-7-(1-methylpiperidin-3-yloxy)-2-oxo-2H-chromen-3-yl)-3-(3-methylbut-2-enyl)benzamide]

IC50 [1, 5]: 0.51 µM
IC50 [2, 6]: 0.023 µM
SMILES: CC(C)=CCc1cc(C(=O)Nc2cc3ccc(OC4CCN(C)CC4)c(C)c3oc2=O)ccc1OCCN(C)C [KU-456]

IC50 [1, 5]: 0.85 ± 0.09 µM
IC50 [2, 6]: 0.47 ± 0.1 µM
SMILES: CC(C)=CCc1cc(C(=O)Nc2cc3ccc(OC4CCNCC4)c(C)c3oc2=O)ccc1O [31b, KU-416, 4-Hydroxy-N-(8-methyl-2-oxo-7-(piperidin-4-yloxy)-2H-chromen-3-yl)-3-(3-methylbut-2-enyl)benzamide]

IC50 [1, 9]: 0.35 ± 0.21 µM
IC50 [2, 10]: 0.09 ± 0.03 µM
SMILES: Cc1c(OC2CCN(C)CC2)ccc2cc(NC(=O)c3cc4cc(Cl)ccc4[nH]3)c(=O)oc12 [KU-380]

IC50 [1, 5]: 52.7 µM
IC50 [2, 6]: 9.45 ± 0.22 µM
SMILES: CC(C)=CCc1cc(C(=O)Nc2cc3ccc(OCCN(C)C)c(C)c3oc2=O)ccc1O [31e, KU-422, N-(7-(2-(Dimethylamino)ethoxy)-8-methyl-2-oxo-2H-chromen-3-yl)-4-hydroxy-3-(3-methylbut-2-enyl)benzamide]

IC50 [1, 5]: 0.29 µM
IC50 [2, 6]: 0.09 µM
SMILES: COc1c(OC2CCN(C)CC2)ccc2cc(NC(=O)c3ccc(OCCN(C)C)c(CC=C(C)C)c3)c(=O)oc12 [KU-459]

IC50 [1, 9]: 0.5 ± 0.01 µM
IC50 [2, 10]: 1.54 ± 0.15 µM
SMILES: COc1cc2cc(NC(=O)c3cc4cc(Cl)ccc4[nH]3)c(=O)oc2c(C)c1OCCCN(C)C [KU-395]

IC50 [1, 5]: 1.33 ± 0.01 µM
IC50 [2, 6]: 0.75 ± 0.12 µM
SMILES: CNCCOc1ccc2cc(NC(=O)c3ccc(O)c(CC=C(C)C)c3)c(=O)oc2c1C [31g, KU-424, 4-Hydroxy-N-(8-methyl-7-(2-(methylamino)ethoxy)-2-oxo-2H-chromen-3-yl)-3-(3-methylbut-2-enyl)benzamide]

IC50 [1, 5]: 2.11 ± 0.58 µM
IC50 [2, 6]: 0.79 ± 0.11 µM
SMILES: CC(C)=CCc1cc(C(=O)Nc2cc3ccc(OC4CCCNC4)c(C)c3oc2=O)ccc1O (stereo not drawn) [31d, KU-420, 4-Hydroxy-N-(8-methyl-2-oxo-7-(piperidin-3-yloxy)-2H-chromen-3-yl)-3-(3-methylbut-2-enyl)benzamide]
